Active and inactive are the calls of the source. How the calls were made is not given here.
Tested on: CCRIS mutagenicity, Ames/micronucleus/aberration tests
Experiment: CCRIS mutagenicity studies

Cc1ccccc1N
mutagenic call (Test System: AMES SALMONELLA TYPHIMURIUM, Strain/Indicator: TA104, Metabolic Activation: HAMSTER, LIVER, S-9, SODIUM PHENOBARBITAL AND 5,6-BENZOFLAVONE, Method: PREINCUBATION): inactive; negative
mutagenic call (Test System: AMES SALMONELLA TYPHIMURIUM, Strain/Indicator: TA104, Metabolic Activation: NONE, Method: PREINCUBATION): inactive; negative
mutagenic call (Test System: AMES SALMONELLA TYPHIMURIUM, Strain/Indicator: TA1535, Metabolic Activation: HAMSTER LIVER S-9, AROCLOR 1254 (10%), Method: PREINCUBATION): inactive; negative
mutagenic call (Test System: AMES SALMONELLA TYPHIMURIUM, Strain/Indicator: TA1535, Metabolic Activation: HAMSTER, LIVER, S-9, AROCLOR 1254 (10%), Method: PREINCUBATION): inactive; negative
mutagenic call (Test System: AMES SALMONELLA TYPHIMURIUM, Strain/Indicator: TA1535, Metabolic Activation: HAMSTER, LIVER, S-9, SODIUM PHENOBARBITAL AND 5,6-BENZOFLAVONE, Method: PREINCUBATION): inactive; negative
mutagenic call (Test System: AMES SALMONELLA TYPHIMURIUM, Strain/Indicator: TA1535, Metabolic Activation: NONE, Method: PREINCUBATION): inactive; negative
mutagenic call (Test System: AMES SALMONELLA TYPHIMURIUM, Strain/Indicator: TA1535, Metabolic Activation: NONE, Method: STANDARD PLATE): inactive; negative
mutagenic call (Test System: AMES SALMONELLA TYPHIMURIUM, Strain/Indicator: TA1535, Metabolic Activation: RAT LIVER S-9, AROCLOR 1254 (10 OR 30%), Method: PREINCUBATION): inactive; negative
mutagenic call (Test System: AMES SALMONELLA TYPHIMURIUM, Strain/Indicator: TA1535, Metabolic Activation: RAT, LIVER, S-9, AROCLOR 1254 (10%), Method: PREINCUBATION): inactive; negative
mutagenic call (Test System: AMES SALMONELLA TYPHIMURIUM, Strain/Indicator: TA1535, Metabolic Activation: RAT, LIVER, S-9, AROCLOR 1254, Method: STANDARD PLATE): inactive; negative
mutagenic call (Test System: AMES SALMONELLA TYPHIMURIUM, Strain/Indicator: TA1537, Metabolic Activation: HAMSTER, LIVER, S-9, AROCLOR 1254 (10%), Method: PREINCUBATION): inactive; negative
mutagenic call (Test System: AMES SALMONELLA TYPHIMURIUM, Strain/Indicator: TA1537, Metabolic Activation: HAMSTER, LIVER, S-9, SODIUM PHENOBARBITAL AND 5,6-BENZOFLAVONE, Method: PREINCUBATION): inactive; negative
mutagenic call (Test System: AMES SALMONELLA TYPHIMURIUM, Strain/Indicator: TA1537, Metabolic Activation: NONE, Method: PREINCUBATION): inactive; negative
mutagenic call (Test System: AMES SALMONELLA TYPHIMURIUM, Strain/Indicator: TA1537, Metabolic Activation: NONE, Method: STANDARD PLATE): inactive; negative
mutagenic call (Test System: AMES SALMONELLA TYPHIMURIUM, Strain/Indicator: TA1537, Metabolic Activation: RAT, LIVER, S-9, AROCLOR 1254 (10%), Method: PREINCUBATION): inactive; negative
mutagenic call (Test System: AMES SALMONELLA TYPHIMURIUM, Strain/Indicator: TA1537, Metabolic Activation: RAT, LIVER, S-9, AROCLOR 1254, Method: STANDARD PLATE): inactive; negative
mutagenic call (Test System: AMES SALMONELLA TYPHIMURIUM, Strain/Indicator: TA1538, Metabolic Activation: NONE, Method: STANDARD PLATE): inactive; negative
mutagenic call (Test System: AMES SALMONELLA TYPHIMURIUM, Strain/Indicator: TA1538, Metabolic Activation: RAT, LIVER, S-9, AROCLOR 1254, Method: STANDARD PLATE): inactive; negative
mutagenic call (Test System: CHINESE HAMSTER OVARY, Strain/Indicator: CHO/6-THIOGUANINE, Metabolic Activation: HAMSTER EMBRYO CELL-MEDIATED): inactive; negative
mutagenic call (Test System: CHINESE HAMSTER OVARY, Strain/Indicator: CHO/6-THIOGUANINE, Metabolic Activation: NONE): inactive; negative
mutagenic call (Test System: CHINESE HAMSTER OVARY, Strain/Indicator: CHO/OUABAIN, Metabolic Activation: NONE): inactive; negative
mutagenic call (Test System: CHINESE HAMSTER V-79, Strain/Indicator: V-79 (HGPRT)/6-THIOGUANINE, Metabolic Activation: NONE): inactive; negative
mutagenic call (Test System: CHINESE HAMSTER V-79, Strain/Indicator: V-79 (HGPRT)/6-THIOGUANINE, Metabolic Activation: RAT, LIVER, S-9, PHENOBARBITAL AND BETA-NAPHTHOFLAVONE): inactive; negative
mutagenic call (Test System: CHINESE HAMSTER V-79, Strain/Indicator: V-79/6-THIOGUANINE, Metabolic Activation: NONE, Method: REPLATING): active; positive
mutagenic call (Test System: CHINESE HAMSTER V-79, Strain/Indicator: V-79/6-THIOGUANINE, Metabolic Activation: RAT, LIVER, S-9, PHENOBARBITAL AND 5,6-BENZOFLAVONE, Method: REPLATING): inactive; negative
mutagenic call (Test System: CHINESE HAMSTER V-79, Strain/Indicator: V-79/OUABAIN, Metabolic Activation: NONE): inactive; negative
mutagenic call (Test System: CHINESE HAMSTER V-79, Strain/Indicator: V-79/OUABAIN, Metabolic Activation: RAT, LIVER, S-15, PHENOBARBITAL AND 5,6-BENZOFLAVONE): inactive; negative
mutagenic call (Test System: E. COLI, Strain/Indicator: WP2UVRA/PKM101, Metabolic Activation: HAMSTER, LIVER, S-9, SODIUM PHENOBARBITAL AND 5,6-BENZOFLAVONE, Method: PREINCUBATION): inactive; negative
mutagenic call (Test System: E. COLI, Strain/Indicator: WP2UVRA/PKM101, Metabolic Activation: NONE, Method: PREINCUBATION): inactive; negative
mutagenic call (Test System: E. COLI, Strain/Indicator: WP2UVRA, Metabolic Activation: HAMSTER, LIVER, S-9, SODIUM PHENOBARBITAL AND 5,6-BENZOFLAVONE, Method: PREINCUBATION): inactive; negative
mutagenic call (Test System: E. COLI, Strain/Indicator: WP2 UVRA, Metabolic Activation: NONE, Method: PREINCUBATION): inactive; negative
mutagenic call (Test System: E. COLI, Strain/Indicator: WP2UVRA, Metabolic Activation: NONE, Method: PREINCUBATION): inactive; negative
mutagenic call (Test System: E. COLI, Strain/Indicator: WP2 UVRA, Metabolic Activation: RAT, LIVER, S-9, PHENOBARBITAL AND 5,6-BENZOFLAVONE, Method: PREINCUBATION): inactive; negative
mutagenic call (Test System: MOUSE LYMPHOMA, Strain/Indicator: L5178Y (TK+/+)/OUABAIN, Metabolic Activation: NONE, Method: SUSPENSION/PLATE): inactive; negative
mutagenic call (Test System: MOUSE LYMPHOMA, Strain/Indicator: L5178Y (TK+/+)/OUABAIN, Metabolic Activation: RAT LIVER S-9, AROCLOR 1254, Method: SUSPENSION/PLATE): inactive; negative
mutagenic call (Test System: MOUSE LYMPHOMA, Strain/Indicator: L5178Y (TK+/-)/TRIFLUROTHYMIDINE, Metabolic Activation: NONE, Method: SUSPENSION/PLATE): inactive; negative
mutagenic call (Test System: MOUSE LYMPHOMA, Strain/Indicator: L5178Y (TK+/-)/TRIFLUROTHYMIDINE, Metabolic Activation: RAT LIVER S-9, AROCLOR 1254, Method: SUSPENSION/PLATE): inactive; negative
mutagenic call (Test System: MOUSE LYMPHOMA, Strain/Indicator: L5178Y (TK+/TK-), Metabolic Activation: NONE, Method: SUSPENSION/PLATE): inactive; negative
mutagenic call (Test System: MOUSE LYMPHOMA, Strain/Indicator: L5178Y (TK+/TK-), Metabolic Activation: RAT, LIVER, S-9, Method: SUSPENSION/PLATE): inactive; negative
mutagenic call (Test System: UDS RAT HEPATOCYTES, Strain/Indicator: THY INCORP, Metabolic Activation: NONE, Method: LIQUID SCINTILLATION COUNTING): active; positive
